Test results reported in publication PMC11510191, “Exploring Benzo[h]chromene Derivatives as Agents against Protozoal and Mycobacterial Infections” (Pharmaceuticals, 2024).
Converted amounts (≈) assume the structure as drawn. Like-named read-outs stand apart in the source and are kept apart here.

Legend:
[1] = tested on: Leishmania brazilensis (L. b) promastigotes; experiment: Leishmanicidal activity on L. braziliensis promastigotes (resazurin); conditions: for IC50: Leishmania, 48 h, read-out: Leishmanicidal Activity IC50—L. b; for Selectivity Index L929/ L. b: SI = CC50 L929/IC50 parasites
Protocol: (§1) The culture of L. braziliensis (MHOM/CO/88/UA301) and L. infantum (MCAN/ES/92/BCN83) was obtained from the Facultad de Farmacia, Universidad Complutense de Madrid, Spain.
(§2) The maintenance of the strains, the form of cultivation, and the isolation of shape promastigota followed the procedures described by Roldós et al. [8]. The promastigotes were grown at 22 °C in Schneider’s Drosophila medium supplemented with 20% FBS. The assay was performed using a modification of a previous method [47]. Promastigotes (2 × 10^6 parasites/well) were cultured in 96-well plastic plates. Compounds were dissolved in dimethylsulfoxide (DMSO). Different dilutions of the compounds up to a 200 µL final volume were added. After 48 h at 26 °C, 20 µL of 2 mM resazurin solution was added and the oxidation–reduction was quantified at 570 and 600 nm. The solution of resazurin was prepared at 2.5 mM in phosphate-buffered solution (PBS), pH 7.4, and filtered through 0.22 µM prior to use. All tests were carried out in triplicate. Resazurin sodium salt was obtained from Sigma–Aldrich (St. Louis, MO, USA) and stored at 4 °C protected from light. The efficacy of each compound was estimated by calculating the IC50 values.

[2] = tested on: M. tuberculosis ATCC H37Rv; experiment: MIC broth microdilution; type: cell-based; conditions: Mycobacterium tuberculosis, H37RV
M. abscessus LIID-03 = experiment: MIC broth microdilution; type: cell-based; conditions: Mycobacteroides abscessus, LIID03, 72 h
E. coli (G−) = experiment: MIC broth microdilution; type: cell-based; conditions: Escherichia coli, 24 h
S. aureus (G+) = experiment: MIC broth microdilution; type: cell-based; conditions: Staphylococcus aureus, 24 h
L. monocytogenes (G+) = experiment: MIC broth microdilution; type: cell-based; conditions: Listeria monocytogenes, 24 h
M. luteus (G+) = experiment: MIC broth microdilution; type: cell-based; conditions: Micrococcus luteus, 24 h
L. innocua (G+) = experiment: MIC broth microdilution; type: cell-based; conditions: Listeria innocua, 24 h
M. fortuitum LIID-01 = experiment: MIC broth microdilution; type: cell-based; conditions: Mycolicibacterium fortuitum, LIID01, 72 h
S. typhi (G−) = experiment: MIC broth microdilution; type: cell-based; conditions: Salmonella enterica, 24 h
[3] = tested on: M. intracellulare LIID-01; experiment: MIC broth microdilution; type: cell-based; conditions: Mycobacterium intracellulare, LIID01
M. abscessus LIID-02 = experiment: MIC broth microdilution; type: cell-based; conditions: Mycobacteroides abscessus, LIID02, 72 h
[4] = tested on: M. intracellulare LIID-02; experiment: MIC broth microdilution; type: cell-based; conditions: Mycobacterium intracellulare, LIID02
[5] = tested on: M. tuberculosis CIPTIR -D152; experiment: MIC broth microdilution; type: cell-based; conditions: Mycobacterium tuberculosis
B. cereus (G+) = experiment: MIC broth microdilution; type: cell-based; conditions: Bacillus cereus, 24 h
T. cruzi epimastigotes = experiment: Trypanocidal activity on T. cruzi epimastigotes (CL-B5 lacZ, CPRG); type: cell-based, Trypanosoma cruzi clone CL-B5; conditions: for Selectivity Index L929/ T. cruzi: SI = CC50 L929/IC50 parasites; for IC50: 72 h
Protocol: For in vitro studies of T. cruzi. the clone CL-B5 was used. Parasites were stably transfected with the Escherichia coli β-galactosidase gene (lacZ), provided by Facultad de Farmacia (Universidad Complutense de Madrid). Epimastigotes were grown at 28 °C in liver infusion tryptose broth (Difco, Detroit, MI, USA) with 10% fetal bovine serum (FBS) (Gibco, Carlsbad, CA, USA), penicillin (Ern S.A., Barcelona, Spain), and streptomycin (Reig Jofré S.A., Barcelona. Spain), as described previously, and harvested during the exponential growth phase. Briefly, the screening assay was performed in 96-well microplates (Sarstedt, Inc., Newton, NC, USA) with cultures that had not reached the stationary phase. Briefly, epimastigotes were seeded at 2 × 10^5 parasites/mL in 200 µL growth media. The plates were then incubated with the respective compounds at 28 °C for 72 h. Afterwards, 50 µL of CPRG solution was added, resulting in a final concentration of 200 µM. The plates were incubated at 37 °C for an additional 4 h and then read at 595 nm. Each concentration was tested in triplicate. […] These values were calculated from the sigmoidal dose–response curve adjustment using the statistical software program Graph-Pad Prims 3.0. Benznidazole was used as a reference drug.

E. faecalis (G+) = experiment: MIC broth microdilution; type: cell-based; conditions: Enterococcus faecalis, 24 h
[6] = tested on: NCTC929 fibroblast cells (L929); experiment: Cytotoxicity on L929 fibroblasts (resazurin); conditions: L929 fibroblasts
[7] = Cytotoxicity on L929 fibroblasts (resazurin); conditions: mouse
[8] = tested on: M. tuberculosis CIPTIR-F296; experiment: MIC broth microdilution; type: cell-based; conditions: Mycobacterium tuberculosis, CIPTIRF296
M. abscessus LIID-01 = experiment: MIC broth microdilution; type: cell-based; conditions: Mycobacteroides abscessus, LIID01, 72 h
P. aeruginosa (G−) = experiment: MIC broth microdilution; type: cell-based; conditions: Pseudomonas aeruginosa, 24 h
[9] = tested on: Leishmania infantum (L. i) promastigotes; experiment: Leishmanicidal activity on L. infantum promastigotes (resazurin); conditions: for IC50: Leishmania infantum, 48 h, read-out: Leishmanicidal Activity IC50—L. i; for Selectivity Index L929/ L. i: SI = CC50 L929/IC50 parasites
Protocol: as §1, §2

in vitro = conditions: mouse
[10] = Trypanosoma cruzi, epimastigotes, read-out: Trypanocidal Activity IC50 T. cruzi

Structure (SMILES)	IC50 [1]	Selectivity Index L929/ L. b [1]	MIC [2]	MIC (M. abscessus LIID-03)	MIC (E. coli (G−))	MIC (S. aureus (G+))	MIC (L. monocytogenes (G+))	MIC (M. luteus (G+))	MIC (L. innocua (G+))	MIC (M. fortuitum LIID-01)	MIC (S. typhi (G−))	MIC [3]	MIC (M. abscessus LIID-02)	MIC [4]	MIC [5]	MIC (B. cereus (G+))	MIC (E. faecalis (G+))	CC50 at 24 h [7]	MIC [8]	IC50 [9]	also measured
Cc1ccc(S(=O)(=O)n2cc(CCC(=O)Oc3c4c(c5ccccc5c3OC(=O)CCc3cn(S(=O)(=O)c5ccc(C)cc5)nn3)OC(C)(C)C=C4)nn2)cc1 [Compound 2f]	14.5 µM	2	> 200 µg/mL	> 200 µg/mL	> 200 µg/mL	> 200 µg/mL	> 200 µg/mL	> 200 µg/mL	> 200 µg/mL	> 200 µg/mL	> 200 µg/mL	50 µg/mL (≈ 62.7 µM)	> 200 µg/mL	> 200 µg/mL	> 200 µg/mL	> 200 µg/mL	> 200 µg/mL	31.8 µM	> 200 µg/mL	38.2 µM	Selectivity Index L929/ T. cruzi (T. cruzi epimastigotes): 2; IC50 (T. cruzi epimastigotes; Trypanosoma cruzi, read-out: Trypanocidal Activity IC50 T. cruzi, epimastigotes, 72 h): 21.4 µM; IC50 (T. cruzi epimastigotes; epimastigotes, read-out: Trypanocidal Activity IC50 T. cruzi): 21.1 µM; Cytotoxicity (in words) [6]: most cytotoxic; MIC (M. abscessus LIID-01): > 200 µg/mL; MIC (P. aeruginosa (G−)): > 200 µg/mL; Selectivity Index L929/ L. i [9]: 1
Cc1ccc(S(=O)(=O)n2cc(CCCC(=O)Oc3c4c(c5ccccc5c3OC(=O)CCCc3cn(S(=O)(=O)c5ccc(C)cc5)nn3)OC(C)(C)C=C4)nn2)cc1 [Compound 3f]	17.6 µM	18	> 200 µg/mL	100 µg/mL (≈ 121 µM)	100 µg/mL (≈ 121 µM)	100 µg/mL (≈ 121 µM)	100 µg/mL (≈ 121 µM)	100 µg/mL (≈ 121 µM)	100 µg/mL (≈ 121 µM)	100 µg/mL (≈ 121 µM)	> 200 µg/mL	100 µg/mL (≈ 121 µM)	100 µg/mL (≈ 121 µM)	> 200 µg/mL	> 200 µg/mL	100 µg/mL (≈ 121 µM)	> 200 µg/mL	312 µM	> 200 µg/mL	46.6 µM	Selectivity Index L929/ T. cruzi (T. cruzi epimastigotes): 13; IC50 (T. cruzi epimastigotes; [10]): 24.7 µM; Cytotoxicity (in words) [6]: no cytotoxicity; MIC (M. abscessus LIID-01): 100 µg/mL (≈ 121 µM); MIC (P. aeruginosa (G−)): 100 µg/mL (≈ 121 µM); Selectivity Index L929/ L. i [9]: 7
CC1(C)C=Cc2c(OC(=O)CCCc3cn(Cc4ccc([N+](=O)[O-])cc4)nn3)c(OC(=O)CCCc3cn(Cc4ccc([N+](=O)[O-])cc4)nn3)c3ccccc3c2O1 [Compound 3h]	> 256 µM		> 200 µg/mL	100 µg/mL (≈ 127 µM)	> 200 µg/mL	100 µg/mL (≈ 127 µM)	> 200 µg/mL	> 200 µg/mL	> 200 µg/mL	> 200 µg/mL	100 µg/mL (≈ 127 µM)	> 200 µg/mL	100 µg/mL (≈ 127 µM)	> 200 µg/mL	> 200 µg/mL	> 200 µg/mL	> 200 µg/mL	> 256 µM	> 200 µg/mL	> 256 µM	IC50 (T. cruzi epimastigotes; [10]): > 256 µM; MIC (M. abscessus LIID-01): 100 µg/mL (≈ 127 µM); MIC (P. aeruginosa (G−)): > 200 µg/mL
CCCCCCCCCCCCCCCCOP(=O)([O-])OCC[N+](C)(C)C [Miltefosine, reference compound]	64 µM	43.0																		25.1 µM	CC50 at 24 h (in vitro): 2750 µM; Selectivity Index L929/ L. i [9]: 109.7
